Laboratory results: US6090787A, “Antithrombotic agents” (Eli Lilly and Company, priority 1999, dated 2000)
Square brackets hold non-standard residues; d marks the D form. Peptide text beside a SMILES is read from it. dPip = O=C(O)[C@H]1CCCCN1; NEtG = CCNCC(=O)O

Experiments:
[1] = target: T1, factor Xa (Homo sapiens, UniProt P00742); test: Serine protease selectivity, Kass, factor Xa chromogenic assay; format: biochemical; conditions: apparent association constant
T1 construct: Human factors X, Xa, IXa, XIa, and XIIa are purchased from Enzyme Research Laboratories; purchased Enzyme Research Laboratories, South Bend, Ind
Description: (§1) By substantially following the procedures described above for human thrombin, and using other human blood coagulation system serine proteases and proteases of the fibrinolytic system with the appropriate chromogenic substrates, identified below, selectivity of the compounds of the present invention with respect to the coagulation factor serine proteases and with respect to the fibrinolytic system serine proteases are evaluated as well as their substantial lack of interference with serine proteases of the fibrinolytic system. Thrombin inhibitors preferably should spare fibrinolysis induced by urokinase, tissue plasminogen activator (t-PA) and streptokinase. This would be important to the therapeutic use of such agents as an adjunct to streptokinase, t-PA or urokinase thrombolytic therapy and to the use of such agents as an endogenous fibrinolysis-sparing (with respect to t-PA and urokinase) antithrombotic agent. In addition to the lack of interference with the amidase activity of the fibrinolytic proteases, such fibrinolytic system sparing can be studied by the use of human plasma clots and their lysis by the respective fibrinolytic plasminogen activators.
(§2) Human factors X, Xa, IXa, XIa, and XIIa are purchased from Enzyme Research Laboratories, South Bend, Ind.; human urokinase from Leo Pharmaceuticals, Denmark; and recombinant activated Protein C (aPC) is prepared at Eli Lilly and Co. substantially according to U.S. Pat. No. 4,981,952 incorporated by reference herein in its entirety. Chromogenic substrates: N--Benzoyl--Ile--Glu--Gly--Arg--p--nitroanilide (for factor Xa); N--Cbz--D--Arg--Gly--Arg--p--nitroanilide (for factor IXa assay as the factor Xa substrate); Pyroglutamyl--Pro--Arg--p--nitroanilide (for Factor XIa and for aPC); H--D--Pro--Phe--Arg--p--nitroanilide (for factor XIIa); and Pyroglutamyl--Gly--Arg--p--nitroanilide (for urokinase); are purchased from KabiVitrum, Stockholm, Sweden, or from Midwest Biotech, Fishers, Indiana. Bovine trypsin is purchased from Worthington Biochemicals, Freehold, N.J., and human plasma kallikrein from Kabi Vitrum, Stockholm, Sweden. Chromogenic substrate H--D--Pro--Phe--Arg--p--nitroanilide for plasma kallikrein is purchased from Kabi Vitrum, Stockholm, Sweden. N--Benzoyl--Phe--Val--Arg--p--nitroanilide, the substrate for human thrombin and for trypsin, is synthesized according to procedures described above for the compounds of the present invention, using known methods of peptide coupling from commercially available reactants or purchased from Midwest Biotech, Fishers, Ind.

[2] = tested on: human plasma; test: Human plasma anticoagulation, activated partial thromboplastin time (APTT); conditions: concentration required to double the APTT, linear extrapolation
Description: (§3) Dog plasma and rat plasma is obtained from conscious mixed-breed hounds (either sex, Hazelton-LRE, Kalamazoo, Mich., U.S.A.) or from anesthetized male Sprague-Dawley rats (Harlan Sprague-Dawley, Inc., Indianapolis, Ind., U.S.A.) by venipuncture into 3.8 percent citrate. Fibrinogen is prepared from in-date ACD human blood as the fraction I-2 according to previous procedures and specifications. Smith, Biochem. J., 185, 1-11 (1980); and Smith, et al., Biochemistry, 11, 2958-2967 (1972). Human fibrinogen is also purchased as 98 percent pure/plasmin free from American Diagnostica, Greenwich, Conn. Coagulation reagents ACTIN, Thromboplastin, and Human plasma are from Baxter Healthcare Corp., Dade Division, Miami, Fla. Bovine thrombin from Parke-Davis ([…], Mich.) is used for coagulation assays in plasma.
(§4) Coagulation assay procedures are as previously described. Smith, et al., Thrombosis Research, 50, 163-174 (1988). A CoAScreener coagulation instrument (American LABor, Inc.) is used for all coagulation assay measurements. The prothrombin time (PT) is measured by adding 0.05 mL saline and 0.05 mL Thromboplastin-C reagent to 0.05 mL test plasma. The activated partial thromboplastin time (APTT) is measured by incubation of 0.05 mL test plasma with 0.05 mL Actin reagent for 120 seconds followed by 0.05 mL CaCl2 (0.02 M). The thrombin time (TT) is measured by adding 0.05 mL saline and 0.05 mL thrombin (10 NIH units/mL) to 0.05 mL test plasma. The compounds of formula I are added to human or animal plasma over a wide range of concentrations to determine prolongation effects on the APTT, PT, and TT assays. Linear extrapolations are performed to estimate the concentrations required to double the clotting time for each assay.

[3] = target: T2, human thrombin (Homo sapiens, UniProt P00734); test: Inhibition of amidase activity of thrombin (Kass), chromogenic substrate; format: biochemical; conditions: apparent association constant, mean over a range of concentrations
T2 construct: purified human thrombin, Enzyme Research Laboratories; purchased Enzyme Research Laboratories, South Bend, Indiana
Description: The assay is carried out by mixing 50 μL buffer (0.03 M Tris, 0.15 M NaCl, pH 7.4) with 25 μL of bovine thrombin or human thrombin solution (0.21 mg/mL of thrombostat bovine thrombin, Parke-Davis, or purified human thrombin, Enzyme Research Laboratories, South Bend, Indiana, at about 8 NIH units/mL, in the same buffer) and 25 μL of test compound in a solvent (in 50% aqueous methanol, v:v). The 150 μL of an aqueous solution of the chromogenic substrate (at 0.25 mg/mL) are added and the rates of hydrolysis of the substrate are measured by monitoring the reactions at 405 nm for the release of p-nitroaniline. Standard curves are constructed by plotting free thrombin concentration against hydrolysis rate. The hydrolysis rates observed with test compounds are then converted to "free thrombin" values in the respective assays by use of the standard curves. The bound thrombin (bound to test compound) is calculated by subtracting the amount of free thrombin observed in each assay from the known initial amount of thrombin used in the assay. The amount of free inhibitor in each assay is calculated by subtracting the number of moles of bound thrombin from the number of moles of added inhibitor (test compound).
The Kass value is the hypothetical equilibrium constant for the reaction between thrombin and the test compound (I). [formula]
Kass is calculated for a range of concentrations of test compounds and the mean value is reported in units of liter per mole.

[4] = target: T3, tissue plasminogen activator (t-PA) (Homo sapiens, UniProt P00750); test: Fibrinolytic protease selectivity, Kass, t-PA chromogenic assay; format: biochemical; conditions: apparent association constant
T3 construct: purchased American Diagnostica, Greenwich, Conn
Description: as §1
(§5) Human plasmin is purchased from Boehringer Mannheim, Indianapolis, Indiana; nt-PA is purchased as single chain activity reference from American Diagnostica, Greenwich, Conn.; modified-t-PA6 (mt-PA6) is prepared at Eli Lilly and Company by procedure known in the art (See, Burck, et al., J. Biol. Chem., 265, […] (1990). Plasmin chromogenic substrate H--D--Val--Leu--Lys--p--nitroanilide and tissue plasminogen activator (t-PA) substrate H--D--Ile--Pro--Arg--p--nitroanilide are purchased from Kabi Vitrum, Stockholm, Sweden.

[5] = tested on: human plasma; test: Human plasma anticoagulation, thrombin time (TT); conditions: concentration required to double the thrombin time, linear extrapolation
Description: as §3, §4

[6] = tested on: human plasma; test: Human plasma anticoagulation, prothrombin time (PT); conditions: concentration required to double the PT, linear extrapolation
Description: as §3, §4

[7] = target: T4, Human plasmin (Homo sapiens, UniProt P00747); test: Fibrinolytic protease selectivity, Kass, plasmin chromogenic assay; format: biochemical; conditions: apparent association constant
T4 construct: Human plasmin is purchased from Boehringer Mannheim; purchased Boehringer Mannheim, Indianapolis, Indiana
Description: as §1, §5

[8] = target: T5, Bovine trypsin (Bos taurus, UniProt P00760); test: Serine protease selectivity, Kass, trypsin chromogenic assay; format: biochemical; conditions: apparent association constant
T5 construct: purchased Worthington Biochemicals, Freehold, N.J
T5 sequence (P00760 24-246): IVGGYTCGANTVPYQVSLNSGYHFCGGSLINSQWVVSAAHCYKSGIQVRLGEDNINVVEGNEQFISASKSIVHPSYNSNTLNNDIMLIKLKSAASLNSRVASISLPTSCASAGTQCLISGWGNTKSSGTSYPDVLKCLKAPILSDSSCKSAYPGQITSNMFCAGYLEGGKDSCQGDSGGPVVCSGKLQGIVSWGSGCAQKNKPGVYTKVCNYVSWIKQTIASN
Description: as §1, §2

T1 sequence (P00742 235-488 limits assumed): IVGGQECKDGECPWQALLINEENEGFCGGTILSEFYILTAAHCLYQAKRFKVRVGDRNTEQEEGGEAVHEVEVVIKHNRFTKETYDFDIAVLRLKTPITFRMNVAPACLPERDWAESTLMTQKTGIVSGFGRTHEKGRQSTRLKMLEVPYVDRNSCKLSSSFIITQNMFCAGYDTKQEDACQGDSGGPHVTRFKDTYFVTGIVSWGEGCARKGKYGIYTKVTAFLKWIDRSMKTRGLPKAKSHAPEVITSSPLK
T1 sequence (P00742 41-179 partner limits assumed): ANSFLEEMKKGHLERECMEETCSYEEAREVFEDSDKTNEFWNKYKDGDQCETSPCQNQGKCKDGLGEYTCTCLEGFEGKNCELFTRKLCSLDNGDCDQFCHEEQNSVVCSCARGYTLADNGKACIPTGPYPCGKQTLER
T4 sequence (P00747 581-810 limits assumed): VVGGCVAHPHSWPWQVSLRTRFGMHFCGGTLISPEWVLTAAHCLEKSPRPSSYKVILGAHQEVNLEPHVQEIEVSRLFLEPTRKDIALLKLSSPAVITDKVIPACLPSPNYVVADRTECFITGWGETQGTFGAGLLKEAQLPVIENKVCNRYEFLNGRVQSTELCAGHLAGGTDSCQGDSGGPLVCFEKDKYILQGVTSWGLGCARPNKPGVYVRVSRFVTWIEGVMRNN
T4 sequence (P00747 97-580 partner limits assumed): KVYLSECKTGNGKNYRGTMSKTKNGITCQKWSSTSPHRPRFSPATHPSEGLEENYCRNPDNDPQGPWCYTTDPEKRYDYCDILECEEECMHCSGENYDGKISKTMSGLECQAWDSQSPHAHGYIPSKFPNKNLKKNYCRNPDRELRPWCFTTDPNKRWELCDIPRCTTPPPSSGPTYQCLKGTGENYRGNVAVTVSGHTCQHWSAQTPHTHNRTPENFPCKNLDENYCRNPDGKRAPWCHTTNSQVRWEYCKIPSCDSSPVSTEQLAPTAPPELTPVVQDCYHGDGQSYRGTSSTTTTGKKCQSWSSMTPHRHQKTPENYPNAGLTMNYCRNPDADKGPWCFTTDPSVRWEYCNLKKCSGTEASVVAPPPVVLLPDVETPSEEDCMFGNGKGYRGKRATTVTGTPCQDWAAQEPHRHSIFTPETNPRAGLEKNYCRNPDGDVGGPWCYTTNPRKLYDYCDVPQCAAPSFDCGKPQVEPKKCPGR
T3 sequence (P00750 36-562): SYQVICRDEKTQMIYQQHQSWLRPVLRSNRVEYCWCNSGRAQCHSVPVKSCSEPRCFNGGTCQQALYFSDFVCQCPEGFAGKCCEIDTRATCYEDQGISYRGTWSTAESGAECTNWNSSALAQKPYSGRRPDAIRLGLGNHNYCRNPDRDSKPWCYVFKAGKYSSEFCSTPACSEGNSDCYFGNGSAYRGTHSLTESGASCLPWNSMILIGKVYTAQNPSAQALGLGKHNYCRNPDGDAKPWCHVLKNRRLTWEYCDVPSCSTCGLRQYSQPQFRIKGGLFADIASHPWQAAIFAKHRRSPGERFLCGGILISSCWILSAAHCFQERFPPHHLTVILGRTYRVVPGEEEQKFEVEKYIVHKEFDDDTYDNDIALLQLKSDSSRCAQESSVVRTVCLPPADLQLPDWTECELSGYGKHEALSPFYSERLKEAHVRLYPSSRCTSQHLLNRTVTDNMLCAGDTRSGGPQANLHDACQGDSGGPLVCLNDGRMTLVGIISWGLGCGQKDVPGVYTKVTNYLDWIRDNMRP

Row | SMILES | Enzyme Kass Xa [1] [L/mol × 10^6] | Enzyme Kass Human Thrombin [3] [L/mol × 10^6] | Enzyme Kass t-PA [4] [L/mol × 10^6] | Enzyme Kass Plasmin [7] [L/mol × 10^6] | Enzyme Kass Trypsin [8] [L/mol × 10^6] | Human Plasma Anticoagulation 2 × Clotting time APTT [2] | Human Plasma Anticoagulation 2 × Clotting time TT [5] [ng/mL] | Human Plasma Anticoagulation 2 × Clotting time PT [6]
1 | CNCC(=O)N(CCc1ccccc1)CC(=O)N[C@H](C=O)CCCNC(=N)N.Cl.Cl [Example 17, Sar--N(CH2 CH2 Ph)Gly--ArgH.2HCl] | 2.2 | 2.9 | 0.001 | 0.20 | 0.38 | 2,200 ng/mL | 150 | 2,700 ng/mL
2 | CCN(CC(=O)N[C@H](C=O)CCCNC(=N)N)C(=O)[C@H]1CCCCN1.Cl.Cl [Example 2, D-homoprolyl-N-ethylglycyl-L-argininal dihydrochloride] (H-[dPip]-[NEtG]-Arg-aldehyde) | 0.039 | 33 | 0.005 | 0.013 | 1.3 | 2,600 ng/mL | 160 | 5,000 ng/mL
3 | Cl.Cl.NC(N)=NCCC[C@@H](C=O)NC(=O)CN(CCC1CCCCC1)C(=O)[C@H]1CCCCN1 [Example 10, D--hPro--N(cyclohexyl--CH2 CH2)Gly--ArgH.2HCl] | 0.22 | 5.4 | 0.007 | 0.33 | 5.8 | 4,100 ng/mL | 230 | 6,900 ng/mL
4 | CC(C)N(CC(=O)NC(C=O)CCCNC(=N)N)C(=O)C1CCCCN1.Cl.Cl [Example 4, D--hPro--N(i--Pr)Gly--ArgH.2HCl] | 0.074 | 9.7 | 0.001 | 0.031 | 0.5 | 12,000 ng/mL | 230 | 14,000 ng/mL
5 | Cl.Cl.N=C(N)NCCC[C@@H](C=O)NC(=O)CN(C(=O)[C@H]1CCCCN1)c1ccccc1 [Example 11, D--hPro--N(Ph)Gly--ArgH.2HCl] | 0.21 | 16 | 0.0039 | 0.036 | 1.1 | 2,200 ng/mL | 120 | 3,100 ng/mL

Now from value to compound, other results behind:

Row | Enzyme Kass Xa [1] [L/mol × 10^6] | Enzyme Kass Human Thrombin [3] [L/mol × 10^6] | Enzyme Kass t-PA [4] [L/mol × 10^6] | Enzyme Kass Plasmin [7] [L/mol × 10^6] | Enzyme Kass Trypsin [8] [L/mol × 10^6] | SMILES | Human Plasma Anticoagulation 2 × Clotting time APTT [2] | Human Plasma Anticoagulation 2 × Clotting time TT [5] [ng/mL] | Human Plasma Anticoagulation 2 × Clotting time PT [6]
6 | 0.051 | 0.83 | 0.001 | 0.015 | 0.48 | Cl.Cl.N=C(N)NCCC[C@@H](C=O)NC(=O)CN(CCC(=O)O)C(=O)[C@H]1CCCCN1 [Example 13, D--hPro--N(CH2 CH2 COOH)Gly--ArgH.2HCl] | 21,000 ng/mL | 800 | 27,000 ng/mL
7 | 0.47 | 5.1 | 0.001 | 0.34 | 1.1 | Cl.Cl.NC(N)=NCCC[C@@H](C=O)NC(=O)CN(CCc1ccccc1)C(=O)[C@H]1CCCN1 [Example 18, D--Pro--N(CH2 CH2 Ph)Gly--ArgH.2HCl] | 3,300 ng/mL | 170 | 3,900 ng/mL
8 | 0.11 | 0.64 | < 0.001 | 0.22 | 0.22 | Cl.Cl.N=C(N)NCCC[C@@H](C=O)NC(=O)CN(CCc1ccccc1)C(=O)[C@@H]1CCCN1 [Example 19, L--Pro--N(CH2 CH2 Ph)Gly--ArgH.2HCl] | 10,000 ng/mL | 490 | 10,000 ng/mL
